US7091220B2, “Substituted indole Mannich bases” (Gruenenthal GmbH, priority 1999, dated 2006)

tested on: α2-subtype of the human α-adrenergic receptor; experiment: SPA test, affinity for the α2-subtype of the human α-adrenergic receptor; assay type: binding; conditions: not given
Procedure: Wide-ranging testing of the indole Mannich bases according to the invention for their activity was carried out by the conventional high throughput screening methods, such as are described in John P. Devlin, High Throughput Screening, 1997, Marcel Dekker Inc. They are introduced here as a reference and are therefore part of the disclosure.
The action of the indole Mannich bases according to the invention is determined in particular by the affinity for the N-methyl-D-aspartate (NMDA) receptor family, for (α-adrenergic receptors and opioid receptors.
The compounds of the general formula 1 according to the invention investigated are suitable as ligands for the α2-subtype of the human α-adrenergic receptor, which is of importance for pain sensation.
The affinity of the compounds according to the invention for this α2-subtype of the α-adrenergic receptor has been determined with the aid of the SPA test such as is described in John P. Devlin, High Throughput Screening, Marcel Dekker Inc. 1997, pages 307 to 316. This literature is introduced herewith as a reference and is therefore part of the disclosure. The affinities of the compounds according to the invention were in each case determined at a concentration of 10 μM.

Structure (SMILES) | % Inhibition of α2 (humans), 10 μM
CN(C)C(c1c(F)cccc1Cl)c1c[nH]c2cccc([N+](=O)[O-])c12 (stereo not shown) [Example 55, [(2-Chloro-6-fluoro-phenyl)-(4-nitro-1H-indol-3-yl)-methyl]-dimethyl-amine] | 49%
CN(C)C(c1ccccc1Br)c1c[nH]c2cccc([N+](=O)[O-])c12 (stereo not shown) [Example 57, [(2-Bromo-phenyl)-(4-nitro-1H-indol-3-yl)-methyl]-dimethyl-amine] | 64%
Cc1[nH]c2ccccc2c1C(c1ccc(C(C)(C)C)cc1)N(C)C (stereo not shown) [Example 61, [(4-tert-Butyl-phenyl)-(2-methyl-1H-indol-3-yl)-methyl]-dimethyl-amine] | 63%
CN(C)C(c1ccc(F)cc1Cl)c1c[nH]c2cccc([N+](=O)[O-])c12 (stereo not shown) [Example 64, [(2-Chloro-4-fluoro-phenyl)-(4-nitro-1H-indol-3-yl)-methyl]-dimethyl-amine] | 48%

Other lines, results leading:

% Inhibition of α2 (humans), 10 μM | Structure (SMILES)
55% | CCn1c(-c2ccccc2)c(C(c2c(F)cccc2Cl)N(C)C)c2ccccc21 (stereo not shown) [Example 54, [(2-Chloro-6-fluoro-phenyl)-(1-ethyl-2-phenyl-1H-indol-3-yl)-methyl]-dimethylamine]
82% | CN(C)C(c1ccccc1Br)c1cn(C)c2ccccc12 (stereo not shown) [Example 58, [(2-Bromo-phenyl)-(1-methyl-1H-indol-3-yl)-methyl]-dimethyl-amine]
37% | CCc1cccc2c(C(c3cccc(Br)c3)N(C)C)c[nH]c12 (stereo not shown) [Example 59, [(3-Bromo-phenyl)-(7-ethyl-1H-indol-3-yl)-methyl]-dimethyl-amine]
66% | CN(C)C(c1cccc(Br)c1)c1cn(C)c2ccccc12 (stereo not shown) [Example 60, [(3-Bromo-phenyl)-(1-methyl-1H-indol-3-yl)-methyl]-dimethyl-amine]
51% | CCn1c(-c2ccccc2)c(C(c2ccc(C(C)(C)C)cc2)N(C)C)c2ccccc21 (stereo not shown) [Example 62, [(4-tert-Butyl-phenyl)-(1-ethyl-2-phenyl-1H-indol-3-yl)-methyl]-dimethyl-amine]
60% | CN(C)C(c1ccc(C(C)(C)C)cc1)c1cn(C)c2ccccc12 (stereo not shown) [Example 63, [(4-tert-Butyl-phenyl)-(1-methyl-1H-indol-3-yl)-methyl]-dimethyl-amine]
42% | Cc1cccc2[nH]cc(C(c3ccc(F)cc3Cl)N(C)C)c12 (stereo not shown) [Example 65, [(2-Chloro-4-fluoro-phenyl)-(4-methyl-1H-indol-3-yl)-methyl]-dimethyl-amine]
36% | CN(C)C(c1c(F)cccc1Cl)c1c(-c2ccc(Cl)cc2)[nH]c2ccccc12 (stereo not shown) [Example 67, {(2-Chloro-6-fluoro-phenyl)-[2-(4-chloro-phenyl)-1H-indol-3-yl]-methyl}-dimethyl-amine]
75% | CN(C)C(c1cccc(Cl)c1)c1cn(C)c2ccccc12 (stereo not shown) [Example 69, [(3-Chloro-phenyl)-(1-methyl-1H-indol-3-yl)-methyl]-dimethyl-amine]
63% | CN(C)C(c1cccc(Cl)c1Cl)c1cn(C)c2ccccc12 (stereo not shown) [Example 70, [(2,3-Dichloro-phenyl)-(1-methyl-1H-indol-3-yl)-methyl]-dimethyl-amine]
50% | CN(C)C(c1ccc(Cl)cc1Cl)c1cn(C)c2ccccc12 (stereo not shown) [Example 71, [(2,4-Dichloro-phenyl)-(1-methyl-1H-indol-3-yl)-methyl]-dimethyl-amine]

same assay, conditions: 10 µM

% Inhibition of α2 (humans), 10 μM | Structure (SMILES)
38% | CN(C)C(c1c(F)cccc1Cl)c1c(-c2ccccc2)[nH]c2ccccc12 (stereo not shown) [Example 53, [(2-Chloro-6-fluoro-phenyl)-(2-phenyl-1H-indol-3-yl)-methyl]-dimethylamine]
39% | CN(C)C(c1c(F)cccc1Cl)c1cn(C)c2ccccc12 (stereo not shown) [Example 56, [(2-Chloro-6-fluoro-phenyl)-(1-methyl-1H-indol-3-yl)-methyl]-dimethyl-amine]
44% | CN(C)C(c1c(F)cccc1Cl)c1c(-c2ccccc2)[nH]c2ccccc12 (stereo not shown) [Example 66, [(2-Chloro-6-fluoro-phenyl)-(2-phenyl-1H-indol-3-yl)-methyl]-dimethyl-amine]
88% | CN(C)C(c1c(F)cccc1Cl)c1cn(C)c2ccccc12 (stereo not shown) [Example 68, [(2-Chloro-6-fluoro-phenyl)-(1-methyl-1H-indol-3-yl)-methyl]-dimethyl-amine]

tested on: phenylquinone-induced writhing in mice; experiment: Analgesia test: phenylquinone-induced writhing in mice; assay type: in vivo; conditions: male NMRI mice; standard dose 10 mg/kg intravenous, 10 minutes before phenylquinone intraperitoneally; counted 5–20 minutes
Procedure: The in-depth investigation of the compounds according to the invention for their analgesic activity was carried out in the phenylquinone-induced writhing in mice (modified by I. C. Hendershot, J. Forsaith, J. Pharmacol. Exp. Ther. 125, 237–240 (1959)). Male NMRI mice weighing 25–30 g were used for this. Groups of 10 animals per substance dose received 0.3 ml/mouse of a 0.02% aqueous solution of phenylquinone (phenylbenzoquinone, Sigma, Deisenhofen; preparation of the solution with the addition of 5% ethanol and storage in a water bath at 45° C.) administered intraperitoneally 10 minutes after intravenous administration of the test substances. The animals were placed individually in observation cages. The number of pain-induced stretching movements (so-called writhing reactions=straightening of the body with stretching of the hind extremities) were counted by means of a push-button counter for 5–20 minutes after the administration of phenylquinone. Animals which received only physiological saline solution were also run as a control.
The substances were tested in the standard dose of 10 mg/kg. The inhibition of the writhing reactions by a substance was calculated according to the following equation: […]
The in-depth investigation of the compounds according to the invention for their analgesic activity was carried out in the phenylquinone-induced writhing in mice as described above.

Structure (SMILES) | Inhibition of the writhing reaction in %
CN(C)C(c1ccccc1)c1cn(C)c2ccccc12 (stereo not shown) [Example 22, Dimethyl-[(1-methyl-1H-indol-3-yl)-phenylmethyl]-amine] | 39%
Cn1cc(C(c2ccccc2)N2CCOCC2)c2ccccc21 (stereo not shown) [Example 23, 1-Methyl-3-(morpholin-4-yl-phenylmethyl)-1H-indole] | 75%
CN(C)C(c1ccccc1)c1c[nH]c2ccccc12 (stereo not shown) [Example 46, [(1H-Indol-3-yl)-phenylmethyl]-dimethylamine] | 41%
c1ccc(C(c2c[nH]c3ccccc23)N2CCCC2)cc1 (stereo not shown) [Example 47, 3-(Phenylpyrrolidin-1-yl-methyl)-1H-indole] | 57%
Cn1cc(C(c2ccccc2)N2CCCCC2)c2ccccc21 (stereo not shown) [Example 48, 1-Methyl-3-(phenylpiperidin-1-yl-methyl)-1H-indole] | 6%
c1ccc(C(c2c[nH]c3ccccc23)N2CCCCC2)cc1 (stereo not shown) [Example 49, 3-(Phenylpiperidin-1-yl-methyl)-1H-indole] | 82%
